Laboratory results from US6710018B2, “Compositions containing a dicarboxylic acid diester and a post-emergent herbicide and a method of using the same” (Falcon Lab LLC, priority 2002, dated 2004).

Key:
Format in all cases: in vivo
[1] = system: Mugwort (Artemisia vulgaris L.); assay: Example 3: container-grown mugwort, spray treatment, necrosis and control; conditions: DMA 1.5 % W/W, 40 gal/A spray; for % Necrosis Day 1: Day 1, glyphosate 0.5 % W/W; for % Necrosis Day 3: Day 3, glyphosate 0.5 % W/W; for % Control Day 9: Day 9, glyphosate 0.5 % W/W; for % Control Day 12: Day 12, glyphosate 0.5 % W/W; for % Control Day 15: Day 15, glyphosate 0.5 % W/W; for % Control Day 19: Day 19, glyphosate 0.5 % W/W
Description: Mugwort (Artemisia vulgaris L.) rhizomes 2 to 3 inches in length were collected from established plants and planted into soil-less media in 16 fl. oz. size containers. Each container was a replicate and contained one plant. On Day 0, 14 to 18 inch height single stem plants of mugwort were treated with the solutions shown in Table 1 with calibrated hand pump sprayers with constant agitation. Each plant was sprayed with 14 hand pumps for a nominal 40 gal/A spray volume application. Treatments were irrigated and fertilized as needed.

Velvetleaf = assay: Example 4: container-grown velvetleaf, backpack sprayer, necrosis and control; conditions: for % Necrosis After 1 Day / % Control 5 Days / % Control 9 Days / % Control 21 Days: velvetleaf, chlorimuron 0.31 lb.ai/A, dimethyl azelate 1.5 % W/W, 12 gal/A spray
Description: Chlorimuron is a sulfonylurea-type postemergence herbicide, sold by duPont under the trade name “Classic”. Dimethyl azelate (80% technical grade with 20% emulsifier) was added with the dilute herbicidal spray solution to determine if the rapidity and effectiveness of weed control was improved. A single nozzle flat fan wand backpack sprayer with C02 propellant calibrated for 12 gal/A spray volume was used to apply the treatments with a handheld wand applicator and constant walking speed. Velvetleaf plants of 6 to 8 inch height with 3 plants per 16 fl oz container in soil-less media were treated with the mixtures shown in the table below. Each treatment was applied to 3 containers to provide 3 replications per treatment. The dilute spray solutions were agitated during application. The effects of the treatment were observed daily for 21 days with the following results: […]

[2] = system: Momingglory, pitted (Ipomoea lacunosa L.); assay: Example 5: potted pitted morningglory, spray treatment, epinasty and control; conditions: DMA 2.0 % W/W, 12 gpa spray
Description: Momingglory, pitted (Ipomoea lacunosa L.) was seeded into soil-less media in 16 fl oz plastic pots with 3 plants established per pot. Each pot was a replication. When the morningglory plants had two true leaves, control treatments were applied by 2 manual hand pumps from a calibrated hand-pump sprayer. The spray application was a nominal 12 gpa spray volume. The Day 0 treatments were applied as 2 replications with constant agitation of the dilute spray solution. Treatments were evaluated for a 21 day interval after application as follows: […]

Rye (Secale cereale L) = assay: Example 6 Study 1: container-grown rye, spray treatment, necrosis and control; conditions: sethoxydin 0.01 % W/W, dimethyl azelate 3 % W/W, 25 gal/Acre spray; for % Necrosis After 3 Day: 3 days
Description: Rye (Secale cereale L) was grown in 16 fl. oz. containers in soil less media until 4 inches in height and then treated with the herbicidal compositions shown in Table 1 by spraying the herbicidal compositions with 4 pumps of a calibrated hand pump sprayer. The spray volume delivered was 25 gal/Acre. The containers contained approximately 12 rye plants per pot and each container was one replication. Treatments were in full sun with no wind. The effects of the treatments were observed over 3 weeks with the following results recorded: Sethoxydin, a cyclohexadione class herbicide, was obtained from BASF Corp. as “Poast”. The dimethyl azelate was a technical grade obtained from Cognis Corp.

corn (Zea mays L.) = assay: Example 6 Study 2: potted corn, spray treatment, necrosis and control; conditions: sethoxydin 0.01 % W/W, dimethyl azelate 3 % W/W, 13 gal/A spray; for % Necrosis After 3 Day: 3 days
Description: Rye (Secale cereale L) was grown in 16 fl. oz. containers in soil less media until 4 inches in height and then treated with the herbicidal compositions shown in Table 1 by spraying the herbicidal compositions with 4 pumps of a calibrated hand pump sprayer. The spray volume delivered was 25 gal/Acre. The containers contained approximately 12 rye plants per pot and each container was one replication. Treatments were in full sun with no wind. The effects of the treatments were observed over 3 weeks with the following results recorded: Sethoxydin, a cyclohexadione class herbicide, was obtained from BASF Corp. as “Poast”. The dimethyl azelate was a technical grade obtained from Cognis Corp. Another identical study was conducted with corn (Zea mays L.) with 3 plants per pot and 2 replications. The treatments were applied as 2 pumps per pot for a 13 gal/A spray volume to 6 inch height corn plants.

a variety of weeds = assay: Example 1: whole plot, summary of visual effect in words; conditions: Example 1 plot; after one day
Description: A quart of glyphosate herbicide was prepared using the label recommendations of the manufacturer (Monsanto) by adding 18 ml. (0.625 liq. oz.) of “Roundup® Super Concentrate” (41% isopropyl glyphosate), to water and bringing the final solution to 32 oz. liquid (Sol. A). To another 18 ml. of “Roundup Concentrate” was added 18 ml. of dimethyl azelate and this mixture diluted with water to 32 liq. oz. (Sol. B). Thus, each solution contained the same amount of glyphosate while Sol. B also contained 2% dimethyl azelate.
Sol. A was applied with a hand sprayer on a 2 ft. by 3 ft. plot of ground containing a variety of weeds. Sol. B was applied in the same manner on a similar adjacent plot containing the same variety of weeds. The temperature was in the mid-80's (° F.) during the test period with no rain.
The test plots were observed daily.

target weed = assay: General observations on time to necrosis or kill of weeds

Structure (SMILES)	% Necrosis Day 1 [1] [%]	% Necrosis Day 3 [1] [%]	% Control Day 9 [1] [%]	% Control Day 12 [1] [%]	% Control Day 15 [1] [%]	% Control Day 19 [1] [%]	% Necrosis After 1 Day (Velvetleaf) [%]	% Control 5 Days (Velvetleaf) [%]	% Control 9 Days (Velvetleaf) [%]	% Control 21 Days (Velvetleaf) [%]	% Necrosis After 1 Day (Rye (Secale cereale L)) [%]	% Necrosis After 3 Day (Rye (Secale cereale L)) [%]	% Control 5 Days (Rye (Secale cereale L)) [%]	% Control 9 Days (Rye (Secale cereale L)) [%]	% Control 21 Days (Rye (Secale cereale L)) [%]	% Necrosis After 1 Day (corn (Zea mays L.)) [%]	% Necrosis After 3 Day (corn (Zea mays L.)) [%]	% Control 5 Days (corn (Zea mays L.)) [%]	% Control 9 Days (corn (Zea mays L.)) [%]	% Control 21 Days (corn (Zea mays L.)) [%]	other results
COC(=O)CCCCCCCC(=O)OC [DMA, Dimethyl azelate]	49	53	33	21	18	13	0	0	0	0	13	15	8	0	0	18	15	13	0	0	response of velvetleaf, in words (Velvetleaf; dimethyl azelate alone, 1.5 % W/W): tolerant; % Epinasty Day 5 (leaf distortion and downward twisting) ([2]; Day 5, 2,4-D ester 0.3 % W/W): 5%; % Control Day 7 ([2]; Day 7, 2,4-D ester 0.3 % W/W): 3%; % Control Day 10 ([2]; Day 10, 2,4-D ester 0.3 % W/W): 0%; % Control Day 14 ([2]; Day 14, 2,4-D ester 0.3 % W/W): 0%; % Control Day 21 ([2]; Day 21, 2,4-D ester 0.3 % W/W): 0%
O=C(O)CNCP(=O)(O)O [Glyphosate]	0	0	53	100	100	100	–	–	–	–	–	–	–	–	–	–	–	–	–	–	visual effect on the weeds of the plot, in words (a variety of weeds): unaffected; time for weed and grass necrosis to approach 100% (target weed; without the addition of dimethyl azelate): 3 to 4 days; minimal necrosis times (target weed; without the diester): three to four
CCC/C(=N\OCC)C1=C(O)CC(CC(C)SCC)CC1=O (stereo not shown) [Sethoxydin]	–	–	–	–	–	–	–	–	–	–	0	3	24	79	94	0	3	10	40	88	–
COc1cc(Cl)nc(NC(=O)NS(=O)(=O)c2ccccc2C(=O)O)n1 [Chlorimuron]	–	–	–	–	–	–	0	48	53	23	–	–	–	–	–	–	–	–	–	–	–
